The assay has as its target T1, TPM3-TRKA fusion protein (Homo sapiens, UniProt P04629).
T1 construct: The resulted chimeric proteins always retain the kinase domain of TRK proteins; TPM3 (fusion partner, N-terminal part of tropomyosin alpha-3, P06753); endogenous in cells; host or cells: KM12 colon cancer cells; the other entry of the earlier key: TPM3 (P06753, Tropomyosin alpha-3 chain)
The experiment in a line: TPM3-TRKA fusion protein levels in KM12 cells (Western blot). Format: cell-based. The settings on record: 16 h; TPM3-TRKA degradation in KM12 cells at 10 nM compound, category of percentage degradation; read-out: Degradation (at 10 nM). The gist of the method: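 KM12 colon cancer cells were treated with DMSO or compounds at 0.1–100 nM, 0.4–30 nM or other stated concentrations for 4, 8–16 or 16 h. RIPA lysates were BCA-normalized and resolved by SDS-PAGE. TPM3-TRKA was detected by chemiluminescent Western blot, with bands quantified by densitometry.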

Each structure is given as a SMILES string. Some results are limits rather than exact numbers.

T1 sequence (P04629 with tags, fused parts or gaps): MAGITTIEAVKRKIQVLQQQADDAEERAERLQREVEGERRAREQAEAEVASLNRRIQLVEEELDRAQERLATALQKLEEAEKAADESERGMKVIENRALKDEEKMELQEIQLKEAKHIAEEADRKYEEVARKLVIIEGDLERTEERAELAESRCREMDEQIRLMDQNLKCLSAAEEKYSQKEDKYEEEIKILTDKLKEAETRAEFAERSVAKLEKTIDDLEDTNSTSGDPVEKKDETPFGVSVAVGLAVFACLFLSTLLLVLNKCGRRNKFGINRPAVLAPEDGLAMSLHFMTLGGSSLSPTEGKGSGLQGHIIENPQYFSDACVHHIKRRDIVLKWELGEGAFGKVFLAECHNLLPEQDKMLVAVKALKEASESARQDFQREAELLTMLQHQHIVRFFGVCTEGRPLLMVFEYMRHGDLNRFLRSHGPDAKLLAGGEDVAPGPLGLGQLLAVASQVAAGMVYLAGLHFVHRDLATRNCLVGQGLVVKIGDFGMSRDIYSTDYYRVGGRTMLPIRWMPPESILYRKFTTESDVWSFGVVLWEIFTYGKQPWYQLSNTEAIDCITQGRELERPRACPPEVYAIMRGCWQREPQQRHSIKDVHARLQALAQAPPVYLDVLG

Turning to `O=C(CN1CCN(c2cccc(-c3cnc4ccc(N5CCC[C@@H]5c5cccc(F)c5)nn34)n2)CC1)NCCCCNc1cccc2c1C(=O)N(C1CCC(=O)NC1=O)C2=O` (stereo partly drawn) [TR-107, N-(4-((2-(2,6-dioxopiperidin-3-yl)-1,3-dioxoisoindolin-4-yl)amino)butyl)-2-(4-(6-(6-((R)-2-(3-fluorophenyl)pyrrolidin-1-yl)imidazo[1,2-b]pyridazin-3-yl)pyridin-2-yl)piperazin-1-yl)acetamide], the percent degradation of TPM3-TRKA protein at 0.01 µM was greater than 80%. Then `O=C(CN1CCN(c2cccc(-c3cnc4ccc(N5CCC[C@@H]5c5cccc(F)c5)nn34)n2)CC1)NCCOCCOCCOCCOCCNc1cccc2c1C(=O)N(C1CCC(=O)NC1=O)C2=O` (stereo partly drawn) [TR-108, N-(14-((2-(2,6-dioxopiperidin-3-yl)-1,3-dioxoisoindolin-4-yl)amino)-3,6,9,12-tetraoxatetradecyl)-2-(4-(6-(6-((R)-2-(3-fluorophenyl)pyrrolidin-1-yl)imidazo[1,2-b]pyridazin-3-yl)pyridin-2-yl)piperazin-1-yl)acetamide], with greater than 80%. For the compound `O=C(CN1CCN(c2cccc(-c3cnc4ccc(N5CCC[C@@H]5c5cccc(F)c5)nn34)n2)CC1)NCCCNc1cccc2c1C(=O)N(C1CCC(=O)NC1=O)C2=O` (stereo partly drawn) [TR-109, N-(3-((2-(2,6-dioxopiperidin-3-yl)-1,3-dioxoisoindolin-4-yl)amino)propyl)-2-(4-(6-(6-((R)-2-(3-fluorophenyl)pyrrolidin-1-yl)imidazo[1,2-b]pyridazin-3-yl)pyridin-2-yl)piperazin-1-yl)acetamide], the percent degradation of TPM3-TRKA protein at 0.01 µM is greater than 80%. Under `O=C1CCC(N2C(=O)c3ccc(NCCOCCOCCC(=O)N4CCN(c5cccc(-c6cnc7ccc(N8CCC[C@@H]8c8cccc(F)c8)nn67)n5)CC4)cc3C2=O)C(=O)N1` (stereo partly drawn) [TR-113, 2-(2,6-Dioxopiperidin-3-yl)-5-((2-(2-(3-(4-(6-(6-((R)-2˜ (3-fluorophenyl)pyrrolidin-1-yl)imidazo[1,2-b]pyridazin-3-yl)pyridin-2-yl)piperazin-1-yl)-3-oxopropoxy)ethoxy)ethyl)amino) isoindoline-1,3-dione] stands greater than 80%; under `O=C1CCC(N2C(=O)c3ccc(NCCOCCOCCOCCOCCOCCC(=O)N4CCN(c5cccc(-c6cnc7ccc(N8CCC[C@@H]8c8cccc(F)c8)nn67)n5)CC4)cc3C2=O)C(=O)N1` (stereo partly drawn) [TR-116], greater than 80%.

Turning to `O=C1CCC(N2C(=O)c3ccc(NCCCCCCC(=O)N4CCN(c5cccc(-c6cnc7ccc(N8CCC[C@@H]8c8cccc(F)c8)nn67)n5)CC4)cc3C2=O)C(=O)N1` (stereo partly drawn) [TR-117, 2-(2,6-Dioxopiperidin-3-yl)-5-((7-(4-(6-(6-((R)-2-(3-fluorophenyl)pyrrolidin-1-yl)imidazo[1,2-b]pyridazin-3-yl)pyridin-2-yl)piperazin-1-yl)-7-oxoheptyl)amino) isoindoline-1,3-dione], the percent degradation of TPM3-TRKA protein at 0.01 µM is greater than 80%.

Consider `O=C1CCC(N2C(=O)c3ccc(NCCCCCCCC(=O)N4CCN(c5cccc(-c6cnc7ccc(N8CCC[C@@H]8c8cccc(F)c8)nn67)n5)CC4)cc3C2=O)C(=O)N1` (stereo partly drawn) [TR-118, 2-(2,6-Dioxopiperidin-3-yl)-5-((8-(4-(6-(6-((R)-2-(3-fluorophenyl)pyrrolidin-1-yl)imidazo[1,2-b]pyridazin-3-yl)pyridin-2-yl)piperazin-1-yl)-8-oxooctyl)amino) isoindoline-1,3-dione], for which the percent degradation of TPM3-TRKA protein at 0.01 µM was greater than 80%. `O=C1CCC(N2C(=O)c3ccc(NCCOCCC(=O)N4CCN(c5cccc(-c6cnc7ccc(N8CCC[C@@H]8c8cccc(F)c8)nn67)n5)CC4)cc3C2=O)C(=O)N1` (stereo partly drawn) [TR-119, 2-(2,6-Dioxopiperidin-3-yl)-5-((2-(3-(4-(6-(6-((R)-2-(3-fluorophenyl)pyrrolidin-1-yl)imidazo[1,2-b]pyridazin-3-yl)pyridin-2-yl)piperazin-1-yl)-3-oxopropoxy)ethyl)amino) isoindoline-1,3-dione]: the percent degradation of TPM3-TRKA protein at 0.01 µM was greater than 80%. Then `O=C1CCC(N2C(=O)c3ccc(NCCOCCOCCOCCOCCC(=O)N4CCN(c5cccc(-c6cnc7ccc(N8CCC[C@@H]8c8cccc(F)c8)nn67)n5)CC4)cc3C2=O)C(=O)N1` (stereo partly drawn) [TR-120, 2-(2,6-Dioxopiperidin-3-yl)-5-((15-(4-(6-(6-((R)-2-(3-fluorophenyl)pyrrolidin-1-yl)imidazo[1,2-6]pyridazin-3-yl)pyridin-2-yl)piperazin-1-yl)-15-oxo-3,6,9,12-tetraoxapentadecyl)amino) isoindoline-1,3-dione], with greater than 80%; and `O=C1CCC(N2C(=O)c3ccc(NCCC(=O)N4CCN(c5cccc(-c6cnc7ccc(N8CCC[C@@H]8c8cccc(F)c8)nn67)n5)CC4)cc3C2=O)C(=O)N1` (stereo partly drawn) [TR-121, 2-(2,6-Dioxopiperidin-3-yl)-5-((3-(4-(6-(6-((R)-2-(3-fluorophenyl)pyrrolidin-1-yl)imidazo[1,2-b]pyridazin-3-yl)pyridin-2-yl)piperazin-1-yl)-3-oxopropyl)amino) isoindoline-1,3-dione], with greater than 80%; and `O=C1CCC(N2C(=O)c3ccc(NCCCCCC(=O)N4CCN(c5cccc(-c6cnc7ccc(N8CCC[C@@H]8c8cccc(F)c8)nn67)n5)CC4)cc3C2=O)C(=O)N1` (stereo partly drawn) [TR-122, 2-(2,6-Dioxopiperidin-3-yl)-5-((6-(4-(6-(6-((R)-2-(3-fluorophenyl)pyrrolidin-1-yl)imidazo[1,2-b]pyridazin-3-yl)pyridin-2-yl)piperazin-1-yl)-6-oxohexyl)amino) isoindoline-1,3-dione], with greater than 80%. Under `O=C(CN1CCN(c2cccc(-c3cnc4ccc(N5CCC[C@@H]5c5cccc(F)c5)nn34)n2)CC1)NCCCCNc1ccc2c(c1)C(=O)N(C1CCC(=O)NC1=O)C2=O` (stereo partly drawn) [TR-124, N-(4-((2-(2,6-dioxopiperidin-3-yl)-1,3-dioxoisoindolin-S-yl)amino)butyl)-2-(4-(6-(6-((R)-2-(3-fluorophenyl)pyrrolidin-1-yl)imidazo[1,2-b]pyridazin-3-yl)pyridin-2-yl)piperazin-1-yl)acetamide] stands greater than 80%. Turning to `O=C(CN1CCN(c2cccc(-c3cnc4ccc(N5CCC[C@@H]5c5cccc(F)c5)nn34)n2)CC1)NCCOCCOCCOCCOCCNc1ccc2c(c1)C(=O)N(C1CCC(=O)NC1=O)C2=O` (stereo partly drawn) [TR-125, N-(14-((2-(2,6-dioxopiperidin-3-yl)-1,3-dioxoisoindolin-5-yl)amino)-3,6,9,12-tetraoxatetradecyl)-2-(4-(6-(6-((R)-2-(3-fluorophenyl)pyrrolidin-1-yl)imidazo[1,2-b]pyridazin-3-yl)pyridin-2-yl)piperazin-1-yl)acetamide], the percent degradation of TPM3-TRKA protein at 0.01 µM is greater than 80%.

For the compound `O=C(CN1CCN(c2cccc(-c3cnc4ccc(N5CCC[C@@H]5c5cccc(F)c5)nn34)n2)CC1)NCCCNc1ccc2c(c1)C(=O)N(C1CCC(=O)NC1=O)C2=O` (stereo partly drawn) [TR-127, N-(3-((2-(2,6-dioxopiperidin-3-yl)-1,3-dioxoisoindolin-S-yl)amino)propyl)-2-(4-(6-(6-((R)-2-(3-fluorophenyl)pyrrolidin-1-yl)imidazo[1,2-b]pyridazin-3-yl)pyridin-2-yl)piperazin-1-yl)acetamide], the percent degradation of TPM3-TRKA protein at 0.01 µM is greater than 80%. Under `O=C(CN1CCN(c2cccc(-c3cnc4ccc(N5CCC[C@@H]5c5cccc(F)c5)nn34)n2)CC1)NCCCCCCNc1ccc2c(c1)C(=O)N(C1CCC(=O)NC1=O)C2=O` (stereo partly drawn) [TR-128, N-(6-((2-(2,6-dioxopiperidin-3-yl)-1,3-dioxoisoindolin-5-yl)amino)hexyl)-2-(4-(6-(6-((R)-2-(3-fluorophenyl)pyrrolidin-1-yl)imidazo[1,2-b]pyridazin-3-yl)pyridin-2-yl)piperazin-1-yl)acetamide] stands greater than 80%. Under `O=C(CN1CCN(c2cccc(-c3cnc4ccc(N5CCC[C@@H]5c5cccc(F)c5)nn34)n2)CC1)NCCOCCOCCOCCNc1ccc2c(c1)C(=O)N(C1CCC(=O)NC1=O)C2=O` (stereo partly drawn) [TR-129, N-(2-(2-(2-(2-((2-(2,6-dioxopiperidin-3-yl)-1,3-dioxoisoindolin-5-yl)amino)ethoxy)ethoxy)ethoxy)ethyl)-2-(4-(6-(6-((R)-2-(3-fluorophenyl)pyrrolidin-1-yl)imidazo[1,2-b]pyridazin-3-yl)pyridin-2-yl)piperazin-1-yl)acetamide] stands greater than 80%; under `O=C(CN1CCN(c2cccc(-c3cnc4ccc(N5CCC[C@@H]5c5cccc(F)c5)nn34)n2)CC1)NCCCCCNc1ccc2c(c1)C(=O)N(C1CCC(=O)NC1=O)C2=O` (stereo partly drawn) [TR-131, N-(5-((2-(2,6-dioxopiperidin-3-yl)-1,3-dioxoisoindolin-5-yl)amino)pentyl)-2-(4-(6-(6-((R)-2-(3-fluorophenyl)pyrrolidin-1-yl)imidazo[1,2-b]pyridazin-3-yl)pyridin-2-yl)piperazin-1-yl)acetamide], greater than 80%. Under `O=C(CN1CCN(c2cccc(-c3cnc4ccc(N5CCC[C@@H]5c5cccc(F)c5)nn34)n2)CC1)NCCOCCOCCOCCOCCOCCNc1ccc2c(c1)C(=O)N(C1CCC(=O)NC1=O)C2=O` (stereo partly drawn) [TR-132, N-(17-((2-(2,6-dioxopiperidin-3-yl)-1,3-dioxoisoindolin-5-yl)amino)-3,6,9,12,15-pentaoxaheptadecyl)-2-(4-(6-(6-((R)-2-(3-fluorophenyl)pyrrolidin-1-yl)imidazo[1,2-b]pyridazin-3-yl)pyridin-2-yl)piperazin-1-yl)acetamide] stands greater than 80%.

The record behind these values is patent publication US12410171B2, “Tropomyosin receptor kinase (TRK) degradation compounds and methods of use” (Cullgen (Shanghai), Inc., priority 2020, dated 2025).
